Patent US20100099561A1, “HETEROBICYCLIC ALKYLTHIO-BRIDGED ISOXAZOLINES” (E.I. DU PONT DE NEMOURS AND COMPANY, priority 2008, published 2010)

How the values were obtained:
Type in all cases: in vivo
[1] = system: large crabgrass (Digitaria sanguinalis); test: Test A preemergence, large crabgrass; conditions: 0 to 100 scale (0 no effect, 100 complete control)
Procedure, shortened: (§1)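 Ratings of 0–100 (0 no effect, 100 complete control) came from visual comparison with untreated controls after roughly ten days in a greenhouse. Plants in loam soil–sand blend were treated with compound in non-phytotoxic solvent plus surfactant, pre- or postemergence (one- to two-leaf stage).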

[2] = system: ducksalad (Heteranthera limosa); test: Test B flooded paddy test, ducksalad; conditions: Flood, scale 0 to 100
Procedure, shortened: (§2)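 Rice, umbrella sedge, ducksalad and barnyardgrass at 2-leaf stage; pots flooded to 3 cm, compounds applied into paddy water, depth held throughout. Greenhouse 13 to 15 days, then visual rating vs untreated controls on 0–100 scale (0 no effect, 100 complete control); dash means no test result.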

[3] = system: velvetleaf (Abutilon theophrasti); test: Test A preemergence, velvetleaf; conditions: 0 to 100 scale (0 no effect, 100 complete control)
Procedure, shortened: as §1

[4] = system: barnyardgrass (Echinochloa crus-galli); test: Test B flooded paddy test, barnyardgrass; conditions: Flood
Procedure, shortened: as §2

rice (Oryza sativa) = test: Test B flooded paddy test, rice; conditions: Flood, scale 0 to 100
Procedure, shortened: as §2

[5] = system: umbrella sedge (Cyperus difformis); test: Test B flooded paddy test, umbrella sedge; conditions: Flood, scale 0 to 100
Procedure, shortened: as §2

corn (Zea mays) [6] = test: Test A preemergence, corn; conditions: 0 to 100 scale (0 no effect, 100 complete control)
Procedure, shortened: as §1

[7] = system: morningglory (Ipomoea spp.); test: Test A preemergence, morningglory; conditions: 0 to 100 scale (0 no effect, 100 complete control)
Procedure, shortened: as §1

[8] = system: wheat (Triticum aestivum); test: Test A postemergence, wheat; conditions: 0 to 100 scale (0 no effect, 100 complete control)
Procedure, shortened: as §1

[9] = system: large crabgrass (Digitaria sanguinalis); test: Test A postemergence, large crabgrass; conditions: 0 to 100 scale (0 no effect, 100 complete control)
Procedure, shortened: as §1

corn (Zea mays) [10] = test: Test A postemergence, corn; conditions: 0 to 100 scale (0 no effect, 100 complete control)
Procedure, shortened: as §1

[11] = system: pigweed (Amaranthus retroflexus); test: Test A preemergence, pigweed; conditions: 0 to 100 scale (0 no effect, 100 complete control)
Procedure, shortened: as §1

[12] = system: wheat (Triticum aestivum); test: Test A preemergence, wheat; conditions: 0 to 100 scale (0 no effect, 100 complete control)
Procedure, shortened: as §1

[13] = system: morningglory (Ipomoea spp.); test: Test A postemergence, morningglory; conditions: 0 to 100 scale (0 no effect, 100 complete control)
Procedure, shortened: as §1

[14] = system: giant foxtail (Setaria faberi); test: Test A postemergence, giant foxtail; conditions: 0 to 100 scale (0 no effect, 100 complete control)
Procedure, shortened: as §1

[15] = system: velvetleaf (Abutilon theophrasti); test: Test A postemergence, velvetleaf; conditions: 0 to 100 scale (0 no effect, 100 complete control)
Procedure, shortened: as §1

[16] = system: giant foxtail (Setaria faberi); test: Test A preemergence, giant foxtail; conditions: 0 to 100 scale (0 no effect, 100 complete control)
Procedure, shortened: as §1

[17] = system: pigweed (Amaranthus retroflexus); test: Test A postemergence, pigweed; conditions: 0 to 100 scale (0 no effect, 100 complete control)
Procedure, shortened: as §1

[18] = system: barnyardgrass (Echinochloa crus-galli); test: Test A preemergence, barnyardgrass; conditions: 0 to 100 scale (0 no effect, 100 complete control)
Procedure, shortened: as §1

[19] = system: barnyardgrass (Echinochloa crus-galli); test: Test A postemergence, barnyardgrass; conditions: 0 to 100 scale (0 no effect, 100 complete control)
Procedure, shortened: as §1

[20] = 250 g ai/ha, scale 0 to 100 (0 no effect, 100 complete control)

CC1(C)CC([S+]([O-])Cc2c(C(F)(F)F)nc3n(c2=O)CCC3)=NO1 (stereo not drawn) [Compound 10, 3-[[(4,5-dihydro-5,5-dimethyl-3-isoxazolyl)sulfinyl]methyl]-7,8-dihydro-2-(trifluoromethyl)pyrrolo[1,2-α]pyrimidin-4(6H)-one]
Plant response rating, Crabgrass, Large ([1]; 125 g ai/ha): 0 | Plant response rating, Crabgrass, Large ([1]; 500 g ai/ha): 80 | Plant response rating, Ducksalad ([2]; 31 g ai/ha): 0 | Plant response rating, Ducksalad ([2]; 62 g ai/ha): 0 | Plant response rating, Ducksalad ([2]; 125 g ai/ha): 0 | Plant response rating, Ducksalad ([2]; 250 g ai/ha): 0 | Plant response rating, Velvetleaf ([3]; 125 g ai/ha): 0 | Plant response rating, Velvetleaf ([3]; 500 g ai/ha): 0 | Plant response rating, Barnyardgrass ([4]; 31 g ai/ha, scale 0 to 100): 0 | Plant response rating, Barnyardgrass ([4]; 62 g ai/ha, scale 0 to 100): 0 | Plant response rating, Barnyardgrass ([4]; 125 g ai/ha, scale 0 to 100): 0 | Plant response rating, Barnyardgrass [4, 20]: 0 | Plant response rating, Rice (rice (Oryza sativa); 31 g ai/ha): 0 | Plant response rating, Rice (rice (Oryza sativa); 62 g ai/ha): 0 | Plant response rating, Rice (rice (Oryza sativa); 125 g ai/ha): 0 | Plant response rating, Rice (rice (Oryza sativa); 250 g ai/ha): 0 | Plant response rating, Sedge, Umbrella ([5]; 31 g ai/ha): 0 | Plant response rating, Sedge, Umbrella ([5]; 62 g ai/ha): 0 | Plant response rating, Sedge, Umbrella ([5]; 125 g ai/ha): 0 | Plant response rating, Sedge, Umbrella ([5]; 250 g ai/ha): 0 | Plant response rating, Corn (corn (Zea mays) [6]; 125 g ai/ha): 0 | Plant response rating, Corn (corn (Zea mays) [6]; 500 g ai/ha): 10 | Plant response rating, Morningglory ([7]; 125 g ai/ha): 0 | Plant response rating, Morningglory ([7]; 500 g ai/ha): 0 | Plant response rating, Wheat ([8]; 125 g ai/ha): 0 | Plant response rating, Wheat ([8]; 500 g ai/ha): 20 | Plant response rating, Crabgrass, Large ([9]; 125 g ai/ha): 40 | Plant response rating, Crabgrass, Large ([9]; 500 g ai/ha): 70 | Plant response rating, Corn (corn (Zea mays) [10]; 125 g ai/ha): 0 | Plant response rating, Corn (corn (Zea mays) [10]; 500 g ai/ha): 20 | Plant response rating, Pigweed ([11]; 125 g ai/ha): 0 | Plant response rating, Pigweed ([11]; 500 g ai/ha): 0 | Plant response rating, Wheat ([12]; 125 g ai/ha): 0 | Plant response rating, Wheat ([12]; 500 g ai/ha): 30 | Plant response rating, Morningglory ([13]; 125 g ai/ha): 10 | Plant response rating, Morningglory ([13]; 500 g ai/ha): 20 | Plant response rating, Foxtail, Giant ([14]; 125 g ai/ha): 30 | Plant response rating, Foxtail, Giant ([14]; 500 g ai/ha): 70 | Plant response rating, Velvetleaf ([15]; 125 g ai/ha): 10 | Plant response rating, Velvetleaf ([15]; 500 g ai/ha): 40 | Plant response rating, Foxtail, Giant ([16]; 125 g ai/ha): 20 | Plant response rating, Foxtail, Giant ([16]; 500 g ai/ha): 80 | Plant response rating, Pigweed ([17]; 125 g ai/ha): 10 | Plant response rating, Pigweed ([17]; 500 g ai/ha): 30 | Plant response rating, Barnyardgrass ([18]; 125 g ai/ha): 0 | Plant response rating, Barnyardgrass ([18]; 500 g ai/ha): 70 | Plant response rating, Barnyardgrass ([19]; 125 g ai/ha): 30 | Plant response rating, Barnyardgrass ([19]; 500 g ai/ha): 80

CC1(C)CC([S+]([O-])Cc2c(C(F)(F)F)nc3ccon3c2=O)=NO1 (stereo not drawn) [Compound 43]
Plant response rating, Crabgrass, Large ([1]; 125 g ai/ha): 0 | Plant response rating, Crabgrass, Large ([1]; 500 g ai/ha): 60 | Plant response rating, Ducksalad ([2]; 31 g ai/ha): 0 | Plant response rating, Ducksalad ([2]; 62 g ai/ha): 0 | Plant response rating, Ducksalad ([2]; 125 g ai/ha): 0 | Plant response rating, Ducksalad ([2]; 250 g ai/ha): 25 | Plant response rating, Velvetleaf ([3]; 125 g ai/ha): 0 | Plant response rating, Velvetleaf ([3]; 500 g ai/ha): 0 | Plant response rating, Barnyardgrass ([4]; 31 g ai/ha, scale 0 to 100): 0 | Plant response rating, Barnyardgrass ([4]; 62 g ai/ha, scale 0 to 100): 0 | Plant response rating, Barnyardgrass ([4]; 125 g ai/ha, scale 0 to 100): 0 | Plant response rating, Barnyardgrass [4, 20]: 0 | Plant response rating, Rice (rice (Oryza sativa); 31 g ai/ha): 0 | Plant response rating, Rice (rice (Oryza sativa); 62 g ai/ha): 0 | Plant response rating, Rice (rice (Oryza sativa); 125 g ai/ha): 0 | Plant response rating, Rice (rice (Oryza sativa); 250 g ai/ha): 0 | Plant response rating, Sedge, Umbrella ([5]; 31 g ai/ha): 0 | Plant response rating, Sedge, Umbrella ([5]; 62 g ai/ha): 0 | Plant response rating, Sedge, Umbrella ([5]; 125 g ai/ha): 20 | Plant response rating, Sedge, Umbrella ([5]; 250 g ai/ha): 30 | Plant response rating, Corn (corn (Zea mays) [6]; 125 g ai/ha): 0 | Plant response rating, Corn (corn (Zea mays) [6]; 500 g ai/ha): 0 | Plant response rating, Morningglory ([7]; 125 g ai/ha): 0 | Plant response rating, Morningglory ([7]; 500 g ai/ha): 0 | Plant response rating, Wheat ([8]; 125 g ai/ha): 0 | Plant response rating, Wheat ([8]; 500 g ai/ha): 0 | Plant response rating, Crabgrass, Large ([9]; 125 g ai/ha): 10 | Plant response rating, Crabgrass, Large ([9]; 500 g ai/ha): 60 | Plant response rating, Corn (corn (Zea mays) [10]; 125 g ai/ha): 0 | Plant response rating, Corn (corn (Zea mays) [10]; 500 g ai/ha): 40 | Plant response rating, Pigweed ([11]; 125 g ai/ha): 0 | Plant response rating, Pigweed ([11]; 500 g ai/ha): 0 | Plant response rating, Wheat ([12]; 125 g ai/ha): 0 | Plant response rating, Wheat ([12]; 500 g ai/ha): 0 | Plant response rating, Morningglory ([13]; 125 g ai/ha): 0 | Plant response rating, Morningglory ([13]; 500 g ai/ha): 40 | Plant response rating, Foxtail, Giant ([14]; 125 g ai/ha): 30 | Plant response rating, Foxtail, Giant ([14]; 500 g ai/ha): 70 | Plant response rating, Velvetleaf ([15]; 125 g ai/ha): 0 | Plant response rating, Velvetleaf ([15]; 500 g ai/ha): 0 | Plant response rating, Foxtail, Giant ([16]; 125 g ai/ha): 0 | Plant response rating, Foxtail, Giant ([16]; 500 g ai/ha): 80 | Plant response rating, Pigweed ([17]; 125 g ai/ha): 0 | Plant response rating, Pigweed ([17]; 500 g ai/ha): 0 | Plant response rating, Barnyardgrass ([18]; 125 g ai/ha): 10 | Plant response rating, Barnyardgrass ([18]; 500 g ai/ha): 70 | Plant response rating, Barnyardgrass ([19]; 125 g ai/ha): 40 | Plant response rating, Barnyardgrass ([19]; 500 g ai/ha): 70
